Tests used:
[1] = tested on: human multiple myeloma RPMI8226 cells; experiment: Inhibitory activity against human multiple myeloma RPMI8226 cell growth (CellTiter-Glo); assay type: cell-based; details: Homo sapiens, RPMI-8226, 192 h, 1 μM test compound, cultured for 8 days; read-out: Percent inhibition of RPMI8226 cell growth (%)
Protocol: The compound of the present invention was evaluated for its inhibitory activity against human multiple myeloma RPMI8226 cell growth by the following method.
A suspension of human multiple myeloma RPMI8226 cells (purchased from the Health Protection Agency) was inoculated at 40 μL (300 cells/well) to a 384-well plate and cultured at 37° C. for 1 day in a 5% CO2 incubator. After the culture, each test compound solution was added thereto at a test concentration of 1 μM using TECAN D300, and the cells were further cultured for 8 days. After the culture, CellTiter-Glo™ Luminescent Cell Viability Assay reagent (Promega) was added at 40 μL/well to a 384-well plate, and the amount of luminescence was measured using a luminometer. Inhibitory activity against human multiple myeloma RPMI8226 cell growth (percent inhibition (%)) of the test compound was calculated according to the following formula, which is based on the hypothesis that the amount of residual ATP reflects the number of cells. In this formula, 100% control represents the amount of luminescence from a well with only 0.1% DMSO added. Percent inhibition (%)=(1−(amount of luminescence of the test compound)÷(100% control))×100

CDC2L6/CycC (CDK19) = target: T1, CDC2L6/CycC (CDK19) (Homo sapiens, UniProt Q9BWU1); experiment: CDK19 inhibitory activity (Kinase Tracer-236 / Eu-anti-GST fluorescence assay); assay type: binding; set-up: Percent inhibition of CDK19 activity (%): concentration or dose not given beside the values; details: test compound concentration given as '1 1.1.1\4' [sic]
T1 construct: purchased Carna Biosciences Inc
T1 sequence (Q9BWU1 whole entry): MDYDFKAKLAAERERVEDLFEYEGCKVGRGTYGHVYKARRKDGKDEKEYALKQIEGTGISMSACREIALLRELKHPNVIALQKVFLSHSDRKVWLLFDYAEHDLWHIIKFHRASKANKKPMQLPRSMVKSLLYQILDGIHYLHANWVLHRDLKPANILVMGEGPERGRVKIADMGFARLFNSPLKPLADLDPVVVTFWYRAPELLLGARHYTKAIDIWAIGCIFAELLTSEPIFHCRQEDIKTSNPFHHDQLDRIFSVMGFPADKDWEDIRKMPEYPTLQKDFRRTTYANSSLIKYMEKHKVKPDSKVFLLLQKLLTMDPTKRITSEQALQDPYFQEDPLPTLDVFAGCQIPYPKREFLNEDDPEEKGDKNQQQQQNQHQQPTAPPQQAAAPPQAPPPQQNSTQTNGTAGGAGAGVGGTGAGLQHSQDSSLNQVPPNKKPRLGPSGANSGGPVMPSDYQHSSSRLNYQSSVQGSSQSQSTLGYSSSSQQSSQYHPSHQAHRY
T1 sequence (P24863 whole entry partner): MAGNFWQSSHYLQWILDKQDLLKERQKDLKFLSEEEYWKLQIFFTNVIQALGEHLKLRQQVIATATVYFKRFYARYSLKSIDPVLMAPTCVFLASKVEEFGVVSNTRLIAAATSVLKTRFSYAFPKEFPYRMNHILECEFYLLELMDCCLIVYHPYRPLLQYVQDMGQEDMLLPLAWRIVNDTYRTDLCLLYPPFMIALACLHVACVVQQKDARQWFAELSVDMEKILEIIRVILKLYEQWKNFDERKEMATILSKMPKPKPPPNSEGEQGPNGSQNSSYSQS
Protocol: (§1) The compound of the present invention was evaluated for its CDK8 inhibitory activity and CDK19 inhibitory activity by the following method. […] The primary diluted solution was dispensed in the amount of 2 μL/well to a 384-well plate, and then, a mixed solution of Eu^3+ Cryptate conjugated mouse monoclonal antibody anti-glutathione S-transferase (Cisbio) diluted 267-fold with an assay buffer and 60 nM Kinase Tracer-236 (Life technologies) was added thereto at 2 μL/well. […] After the addition, the plate was left standing at room temperature for 1 hour, and then, the fluorescence intensity (excitation wavelength 320 nm, fluorescence wavelength 615 nm, 665 nm, delay time 50 μsec) was measured using ann EnVision plate reader (PerkinElmer). The percent inhibition of CDK8 or CDK19 activity by the test compound can be calculated according to the following formula, wherein the fluorescence intensity of a reaction solution in the absence of compound is defined as the control, and the fluorescence intensity of a reaction solution in the presence of 10 μM of control compound is defined as the blank.

CDK8/CycC = target: T2, CDK8/CycC (Homo sapiens, UniProt P49336); experiment: CDK8 inhibitory activity (Kinase Tracer-236 / Eu-anti-GST fluorescence assay); assay type: binding; set-up: Percent inhibition of CDK8 activity (%): concentration or dose not given beside the values; details: test compound concentration given as '1 1.1.1\4' [sic]
T2 construct: purchased Carna Biosciences
T2 sequence (P49336 whole entry): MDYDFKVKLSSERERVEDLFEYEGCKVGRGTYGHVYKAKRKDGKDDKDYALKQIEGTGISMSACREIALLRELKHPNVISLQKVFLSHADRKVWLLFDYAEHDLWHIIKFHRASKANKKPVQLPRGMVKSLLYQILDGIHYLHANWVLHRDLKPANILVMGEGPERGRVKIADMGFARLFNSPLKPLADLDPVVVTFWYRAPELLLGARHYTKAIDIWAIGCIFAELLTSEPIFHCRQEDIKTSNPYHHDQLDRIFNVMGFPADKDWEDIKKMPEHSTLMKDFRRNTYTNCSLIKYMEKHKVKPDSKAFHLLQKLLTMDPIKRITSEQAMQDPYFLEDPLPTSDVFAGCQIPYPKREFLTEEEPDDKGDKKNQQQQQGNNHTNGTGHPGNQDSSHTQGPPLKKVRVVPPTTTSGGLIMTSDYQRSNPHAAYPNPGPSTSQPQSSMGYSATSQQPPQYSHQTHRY
T2 sequence (P24863 whole entry partner): as the sequence (P24863 whole entry partner) above
Protocol: as §1

Percent inhibition of CDK19 activity (%) (CDC2L6/CycC (CDK19))	Percent inhibition of CDK8 activity (%) (CDK8/CycC)	Compound	inhibition at 1 µM [1] [%]
95	106	COCCN(C)C(=O)c1ccc(Oc2sc(C(N)=O)c3c2-c2sncc2CC3)cn1 [Example 101, 8-((6-((2-Methoxyethyl)(methyl)carbamoyl)pyridin-3-yl)oxy)-4,5-dihydrothieno[3,4-g][1,2]benzothiazole-6-carboxamide]	65
100	103	NC(=O)c1sc(Oc2ccc(C(=O)N3CCCC3)nc2)c2c1CCc1cnsc1-2 [Example 102, 8-((6-(Pyrrolidin-1-ylcarbonyl)pyridin-3-yl)oxy)-4,5-dihydrothieno[3,4-g][1,2] benzothiazole-6-carboxamide]	58
95	103	N#Cc1cncc(Oc2sc(C(N)=O)c3c2-c2sncc2CC3)c1 [Example 103, 8-((5-Cyanopyridin-3-yl)oxy)-4,5-dihydrothieno[3,4-g][1,2]benzothiazole-6-carboxamide]	52
102	101	NC(=O)c1sc(Oc2ccc(C(=O)N3CCC3)nc2)c2c1CCc1cnsc1-2 [Example 104]	66
96	99	CN(CCO)C(=O)c1ccc(Oc2sc(C(N)=O)c3c2-c2sncc2CC3)cn1 [Example 105]	54
95	97	NC(=O)c1sc(Oc2ccc(C(=O)N3CCCCC3)nc2)c2c1CCc1cnsc1-2 [Example 106, 8-((6-(Piperidin-1-ylcarbonyl)pyridin-3-yl)oxy)-4,5-dihydrothieno[3,4-g][1,2] benzothiazole-6-carboxamide]	58
99	101	CN(C(=O)C1CC1)c1ccc(Oc2sc(C(N)=O)c3c2-c2sncc2CC3)cn1 [Example 108, 8-((6-((Cyclopropylcarbonyl)(methyl)amimo)pyridin-3-yl)oxy)-4,5-dihydrothieno[3,4-g][1,2]benzothiazole-6-carboxamide]	63
98	105	NC(=O)c1sc(Oc2ccc(C(=O)N3CC[C@@H](O)C3)nc2)c2c1CCc1cnsc1-2 [Example 109, 8-((6-(((3R)-3-Hydroxypyrrolidin-1-yl)carbonyl)pyridin-3-yl)oxy)-4,5-dihydrothieno[3,4-g][1,2]benzothiazole-6-carboxamide]	63
98	103	NC(=O)c1sc(Oc2ccc(C(=O)N3CC[C@H](O)C3)nc2)c2c1CCc1cnsc1-2 [Example 110, 8-((6-(((3S)-3-Hydroxypyrrolidin-1-yl)carbonyl)pyridin-3-yl)oxy)-4,5-dihydrothieno[3,4-g][1,2]benzothiazole-6-carboxamide]	63
100	107	COC1CN(C(=O)c2ccc(Oc3sc(C(N)=O)c4c3-c3sncc3CC4)cn2)C1 [Example 111, 8-((6-((3-Methoxyazetidin-1-yl)carbonyl)pyridin-3-yl)oxy)-4,5-dihydrothieno[3,4-g][1,2]benzothiazole-6-carboxamide]	58
102	106	CNC(=O)c1ccc(Oc2sc(C(N)=O)c3c2-c2sncc2CC3)c(C)n1 [Example 112, 8-((2-Methyl-6-(methylcarbamoyl)pyridin-3-yl)oxy)-4,5-dihydrothieno [3,4-g][1,2]benzothiazole-6-carboxamide]	69
101	108	COC1CN(C(=O)c2ccc(Oc3sc(C(N)=O)c4c3-c3sncc3CC4)c(C)n2)C1 [Example 113, 8-((6-((3-Methoxyazetidin-1-yl)carbonyl)-2-methylpyridin-3-yl)oxy)-4,5-dihydrothieno[3,4-g][1,2] benzothiazole-6-carboxamide]	68
100	108	CC(C)(O)CNC(=O)c1ccc(Oc2sc(C(N)=O)c3c2-c2sncc2CC3)cn1 [Example 114, 8-((6-((2-Hydroxy-2-methylpropyl)carbamoyl)pyridin-3-yl)oxy)-4,5-dihydrothieno[3,4-g][1,2]benzothiazole-6-carboxamide]	65
95	100	CN(CC(C)(C)O)C(=O)c1ccc(Oc2sc(C(N)=O)c3c2-c2sncc2CC3)cn1 [Example 115, 8-((6-((2-Hydroxy-2-methylpropyl) (methyl)carbamoyl)pyridin-3-yl)oxy)-4,5-dihydrothieno[3,4-g][1,2] benzothiazole-6-carboxamide]	63
99	103	Cc1nc(C(=O)N(C)C)ccc1Oc1sc(C(N)=O)c2c1-c1sncc1CC2 [Example 116, 8-((6-(Dimethylcarbamoyl)-2-methylpyridin-3-yl)oxy)-4,5-dihydrothieno[3,4-g][1,2]benzothiazole-6-carboxamide]	61
99	110	CCOCCNC(=O)c1ccc(Oc2sc(C(N)=O)c3c2-c2sncc2CC3)cn1 [Example 117, 8-((6-((2-Ethoxyethyl)carbamoyl)pyridin-3-yl)oxy)-4,5-dihydrothieno [3,4-g][1,2]benzothiazole-6-carboxamide]	64
100	104	NC(=O)c1sc(Oc2ccc(C(=O)NC3CC3)nc2)c2c1CCc1cnsc1-2 [Example 118, 8-((6-(Cyclopropylcarbamoyl)pyridin-3-yl)oxy)-4,5-dihydrothieno[3,4-g][1,2] benzothiazole-6-carboxamide]	64
101	108	CCOCCNC(=O)c1ccc(Oc2sc(C(N)=O)c3c2-c2sncc2CC3)c(C)n1 [Example 119, 8-((6-((2-Ethoxyethyl)carbamoyl)-2-methylpyridin-3-yl)oxy)-4,5-dihydrothieno[3,4-g][1,2]benzothiazole-6-carboxamide]	68
99	104	CCOCCNC(=O)c1ccc(Oc2sc(C(N)=O)c3c2-c2sncc2CC3)cc1 [Example 120]	74
101	104	COCCN(C)C(=O)c1ccc(Oc2sc(C(N)=O)c3c2-c2sncc2CC3)c(C)n1 [Example 121, 8-((6-((2-Methoxyethyl)(methyl)carbamoyl)-2-methylpyridin-3-yl)oxy)-4,5-dihydrothieno[3,4-g][1,2] benzothiazole-6-carboxamide]	63
101	100	COCCN(C)C(=O)c1ccc(Oc2sc(C(N)=O)c3c2-c2sncc2CC3)cc1 [Example 123]	64
101	105	Cc1n[nH]c(C)c1Oc1sc(C(N)=O)c2c1-c1sncc1CC2 [Example 124, 8-((3,5-Dimethyl-1H-pyrazol-4-yl)oxy)-4,5-dihydrothieno[3,4-g][1,2] benzothiazole-6-carboxamide]	70
101	102	COCC(=O)N(C)c1ccc(Oc2sc(C(N)=O)c3c2-c2sncc2CC3)cn1 [Example 125, 8-((6-((Methoxyacetyl)(methyl)amino)pyridin-3-yl)oxy)-4,5-dihydrothieno [3,4-g][1,2]benzothiazole-6-carboxamide]	66

From US9745325B2, “Fused heterocyclic compound” (Takeda Pharmaceutical Company Limited, priority 2014, dated 2017)
